In patent US9850283B2, “Macrocyclic inhibitors of the PD-1/PD-L1 and CD80(B7-1)/PD-L1 protein/protein interactions” (BRISTOL-MYERS SQUIBB COMPANY, priority 2013, dated 2017):
pIC50: −log10 of the molar value. Read-outs that look alike come from different tables or passages of the source. Positions of bridges follow the written chain, without caps; N, C: chain ends. Non-standard residues stand in square brackets, D forms with d. Residues, ends and D or L forms follow the SMILES beside them. ξ: configuration not given here. Ala(benzothiazol-2-yl) = N[C@@H](Cc1nc2ccccc2s1)C(=O)O; Ala(thiazol-5-yl) = N[C@@H](Cc1cncs1)C(=O)O; Bip = N[C@@H](Cc1ccc(-c2ccccc2)cc1)C(=O)O; Phe(4-F) = N[C@@H](Cc1ccc(F)cc1)C(=O)O; Phe(4-Me) = Cc1ccc(C[C@H](N)C(=O)O)cc1; 1Nal = N[C@@H](Cc1cccc2ccccc12)C(=O)O; Bta = N[C@@H](Cc1csc2ccccc12)C(=O)O; Hyp = O=C(O)[C@@H]1C[C@@H](O)CN1; NMeF = CN[C@@H](Cc1ccccc1)C(=O)O; 4Pal = N[C@@H](Cc1ccncc1)C(=O)O; NMeNle = CCCC[C@H](NC)C(=O)O; NMeA = CN[C@@H](C)C(=O)O; Dab = NCC[C@H](N)C(=O)O; ξC = NC(CS)C(=O)O; Sar = CNCC(=O)O

Columns and labels:
[1] = target: T1, Human PD-L1/PD-1 (Homo sapiens, UniProt Q9NZQ7); assay: HTRF PD-1-Ig/PD-L1-His binding assay (human PD-L1); settings: cluster symbol; read-out: HTRF IC50 cluster
T1 construct: made in house; host or cells: HEK293T
T1 sequence (Q9NZQ7 with tags, fused parts or gaps): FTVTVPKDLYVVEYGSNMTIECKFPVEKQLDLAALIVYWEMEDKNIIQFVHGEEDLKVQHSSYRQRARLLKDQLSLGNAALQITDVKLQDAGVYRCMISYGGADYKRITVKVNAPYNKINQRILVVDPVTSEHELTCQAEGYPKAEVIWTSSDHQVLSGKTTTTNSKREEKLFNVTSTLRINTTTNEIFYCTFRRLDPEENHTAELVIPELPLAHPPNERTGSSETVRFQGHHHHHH
Method in brief: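 Ig- and His-fused extracellular PD-1/PD-L1 binding in BSA/Tween-20 dPBS. HTRF with Eu anti-Ig (1 nM final) and APC anti-His (20 nM final).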

[2] = target: T2, LK35.2-hPD-L1 cells / PE-labeled PD-1-Ig (Homo sapiens, UniProt Q9NZQ7); assay: LK35.2-hPD-L1 cell binding high-content screening assay; format: cell-based
T2 construct: expressed in transfected cells; host or cells: LK35.2 mouse B cell line
T2 sequence (Q9NZQ7 19-290): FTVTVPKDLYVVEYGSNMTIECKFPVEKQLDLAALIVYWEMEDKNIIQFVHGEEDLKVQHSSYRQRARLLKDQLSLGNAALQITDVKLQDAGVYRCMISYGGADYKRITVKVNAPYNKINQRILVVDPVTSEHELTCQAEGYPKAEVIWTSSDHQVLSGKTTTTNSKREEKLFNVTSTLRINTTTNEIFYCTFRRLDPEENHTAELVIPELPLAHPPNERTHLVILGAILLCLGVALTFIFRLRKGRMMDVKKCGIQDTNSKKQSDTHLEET
Method in brief: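 Fluorescent PD-1-Ig binding to PD-L1-expressing LK35.2 cells, imaged after washing. Conditions: 1 nM PE-PD-1-Ig, 37 °C, 1 h, RPMI with 10% fetal calf serum.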

[3] = cluster symbol, cell line of CBA not given (LK35.2-hPD-L1 or 293T-hPD-L1), read-out: CBA IC50 cluster
[4] = cell binding assay, cell line not given, cluster symbol, read-out: CBA IC50 cluster

Compound | pIC50 [1] | pIC50 [2, 3] | pIC50 [2, 4] | pIC50 ([2]; cell binding assay, cell line not given, value given instead of cluster, read-out: CBA IC50 value)
CCCC[C@H]1C(=O)N(C)CC(=O)N[C@@H](CC(=O)O)C(=O)N[C@@H](C(C)C)C(=O)N(C)[C@@H](Cc2ccccc2)C(=O)N[C@@H](Cc2ccc(O)cc2)C(=O)N(C)CC(=O)N[C@@H](Cc2nc3ccccc3s2)C(=O)N[C@@H](Cc2ccc(O)cc2)C(=O)N[C@@H](CC(C)C)C(=O)N[C@H](C(=O)NCC(N)=O)CSCC(=O)N[C@@H](Cc2ccccc2)C(=O)N(C)[C@@H](Cc2ccccc2)C(=O)N1C [Example 3557] ({CH2CO}-F[NMeF][NMeNle][Sar]DV[NMeF]Y[Sar][Ala(benzothiazol-2-yl)]YLCG-NH2; thioether N-13) | < 7.52 | – | < 7.13 | –
CCCC[C@H]1C(=O)N(C)[C@@H](CCCC)C(=O)N[C@@H](CCCNC(=N)N)C(=O)N[C@H](C(=O)NCC(N)=O)CSCC(=O)N[C@@H](Cc2ccncc2)C(=O)N(C)[C@@H](C)C(=O)N[C@@H](CC(N)=O)C(=O)N2CCC[C@H]2C(=O)N[C@@H](Cc2cnc[nH]2)C(=O)N[C@@H](CC(C)C)C(=O)N2C[C@H](O)C[C@H]2C(=O)N[C@@H](Cc2c[nH]c3ccccc23)C(=O)N[C@@H](CO)C(=O)N[C@@H](Cc2c[nH]c3ccccc23)C(=O)N1C [Example 7029] ({CH2CO}-[4Pal][NMeA]NPHL[Hyp]WSW[NMeNle][NMeNle]RCG-NH2; thioether N-14) | < 7.52 | – | 7.14 to 8.32 | –
CCCC[C@H]1C(=O)N(C)[C@@H](CCCC)C(=O)N[C@@H](CCCNC(=N)N)C(=O)N[C@H](C(=O)NCC(N)=O)CSCC(=O)N[C@@H](Cc2ccccc2)C(=O)N(C)[C@@H](C)C(=O)N[C@@H](CC(N)=O)C(=O)N2CCC[C@H]2C(=O)N[C@@H](Cc2cnc[nH]2)C(=O)N[C@@H](CC(C)C)C(=O)N(C)CC(=O)N[C@@H](Cc2c[nH]c3ccccc23)C(=O)N[C@@H](Cc2cnc[nH]2)C(=O)N[C@@H](Cc2c[nH]c3ccccc23)C(=O)N1C [Example 1068] ({CH2CO}-F[NMeA]NPHL[Sar]WHW[NMeNle][NMeNle]RCG-NH2; thioether N-14) | < 7.52 | < 7.13 | – | –
CCCC[C@H]1C(=O)N(C)[C@@H](CCCC)C(=O)N[C@@H](CCCNC(=N)N)C(=O)N[C@H](C(=O)NCC(N)=O)CSCC(=O)N[C@@H](Cc2ccccc2)C(=O)N(C)[C@@H](C)C(=O)N[C@@H](CC(N)=O)C(=O)N2CCC[C@H]2C(=O)N[C@@H](Cc2cnc[nH]2)C(=O)N[C@@H](CC(C)C)C(=O)N(C)CC(=O)N[C@@H](Cc2ccc(-c3ccccc3)cc2)C(=O)N[C@@H](CO)C(=O)N[C@@H](Cc2c[nH]c3ccccc23)C(=O)N1C [Example 1007] ({CH2CO}-F[NMeA]NPHL[Sar][Bip]SW[NMeNle][NMeNle]RCG-NH2; thioether N-14) | < 7.52 | < 7.13 | – | –
CCCC[C@H]1C(=O)N(C)[C@@H](CCCC)C(=O)N[C@@H](CCCNC(=N)N)C(=O)N[C@H](C(=O)NCC(N)=O)CSCC(=O)N[C@@H](Cc2ccccc2)C(=O)N(C)[C@@H](C)C(=O)N[C@@H](CC(N)=O)C(=O)N2CCC[C@H]2C(=O)N[C@@H](Cc2cncs2)C(=O)N[C@@H](CC(C)C)C(=O)N(C)CC(=O)N[C@@H](Cc2c[nH]c3ccccc23)C(=O)N[C@@H](CO)C(=O)N[C@@H](Cc2c[nH]c3ccccc23)C(=O)N1C [Example 1067] ({CH2CO}-F[NMeA]NP[Ala(thiazol-5-yl)]L[Sar]WSW[NMeNle][NMeNle]RCG-NH2; thioether N-14) | < 7.52 | < 7.13 | – | –
CCCC[C@H]1C(=O)N(C)CC(=O)N[C@@H](CC(=O)O)C(=O)N[C@@H](C(C)C)C(=O)N(C)[C@@H](Cc2ccccc2)C(=O)N[C@@H](Cc2ccc(O)cc2)C(=O)N(C)CC(=O)N[C@@H](Cc2c[nH]c3ccccc23)C(=O)N[C@@H](Cc2ccc(O)cc2)C(=O)N2CCC[C@@H]2C(=O)N[C@H](C(=O)NCC(N)=O)CSCC(=O)N[C@@H](Cc2ccccc2)C(=O)N(C)[C@@H](Cc2ccccc2)C(=O)N1C [Example 3565] (HELM PEPTIDE1{[O=C(C[*:3])[*:2]].F.[meF].[CCCC[C@@H](C(=O)[*:2])N(C)[*:1]].[Sar].D.V.[meF].Y.[Sar].W.Y.[dP].C.G.[am]}$PEPTIDE1,PEPTIDE1,1:R3-14:R3$$$V2.0) | < 7.52 | – | < 7.13 | –

The remaining lines, values ahead:

pIC50 [1] | pIC50 [2, 3] | pIC50 [2, 4] | pIC50 ([2]; cell binding assay, cell line not given, value given instead of cluster, read-out: CBA IC50 value) | Compound
7.52 to 8.17 | 7.14 to 8.32 | – | – | CCCC[C@H]1C(=O)N(C)CC(=O)N[C@@H](CC(=O)O)C(=O)N[C@@H](C(C)C)C(=O)N(C)[C@@H](Cc2ccccc2)C(=O)N[C@@H](Cc2ccc(O)cc2)C(=O)N(C)CC(=O)N[C@@H](Cc2c[nH]c3ccccc23)C(=O)N[C@@H](Cc2ccc(O)cc2)C(=O)N[C@@H](Cc2ccc(C)cc2)C(=O)N[C@H](C(=O)NCC(N)=O)CSCC(=O)N[C@@H](Cc2ccccc2)C(=O)N(C)[C@@H](Cc2ccccc2)C(=O)N1C [Example 3107] ({CH2CO}-F[NMeF][NMeNle][Sar]DV[NMeF]Y[Sar]WY[Phe(4-Me)]CG-NH2; thioether N-13)
7.52 to 8.17 | 7.14 to 8.32 | – | – | CCCC[C@H]1C(=O)N(C)[C@@H](CCCC)C(=O)N[C@@H](CCCNC(=N)N)C(=O)N[C@@H](C(=O)NCC(N)=O)CSCC(=O)N[C@@H](Cc2ccccc2)C(=O)N(C)[C@@H](C)C(=O)N[C@@H](CC(N)=O)C(=O)N2CCC[C@H]2C(=O)N[C@@H](Cc2cnc[nH]2)C(=O)N[C@@H](CC(C)C)C(=O)N(C)CC(=O)N[C@@H](Cc2c[nH]c3ccccc23)C(=O)N[C@@H](CO)C(=O)N[C@@H](Cc2cccc3ccccc23)C(=O)N1C [Example 1002] ({CH2CO}-F[NMeA]NPHL[Sar]WS[1Nal][NMeNle][NMeNle]R[dC]G-NH2; thioether N-14)
8.17 to 9.41 | 8.33 to 9.80 | – | – | CCCC[C@H]1C(=O)N(C)[C@@H](CCCC)C(=O)N[C@@H](C)C(=O)N[C@H](C(=O)NCC(N)=O)CSCC(=O)N[C@@H](Cc2ccc(O)cc2)C(=O)N(C)[C@@H](C)C(=O)N[C@@H](CC(=O)O)C(=O)N2CCC[C@H]2C(=O)N[C@@H](CCN)C(=O)N[C@@H](CC(C)C)C(=O)N2C[C@H](O)C[C@H]2C(=O)N[C@@H](Cc2c[nH]c3ccccc23)C(=O)N[C@@H](CO)C(=O)N[C@@H](Cc2c[nH]c3ccccc23)C(=O)N1C [Example 1158] ({CH2CO}-Y[NMeA]DP[Dab]L[Hyp]WSW[NMeNle][NMeNle]ACG-NH2; thioether N-14)
8.17 to 9.41 | 8.33 to 9.80 | – | – | CCCC[C@H]1C(=O)N(C)CC(=O)N[C@@H](CC(=O)O)C(=O)N[C@@H](C(C)C)C(=O)N(C)[C@@H](Cc2ccccc2)C(=O)N[C@@H](Cc2ccc(O)cc2)C(=O)N(C)CC(=O)N[C@@H](Cc2csc3ccccc23)C(=O)N[C@@H](Cc2ccc(O)cc2)C(=O)N[C@@H](CC(C)C)C(=O)N[C@H](C(=O)NCC(N)=O)CSCC(=O)N[C@@H](Cc2ccc(F)cc2)C(=O)N(C)[C@@H](Cc2ccccc2)C(=O)N1C [Example 3116] ({CH2CO}-[Phe(4-F)][NMeF][NMeNle][Sar]DV[NMeF]Y[Sar][Bta]YLCG-NH2; thioether N-13)
7.52 to 8.17 | – | 7.14 to 8.32 | – | CCCC[C@H]1C(=O)N(C)[C@@H](COc2cccc(C)c2)C(=O)N[C@@H](CCCNC(=N)N)C(=O)N[C@H](C(=O)NCC(N)=O)CSCC(=O)N[C@@H](Cc2ccc(O)cc2)C(=O)N(C)[C@@H](C)C(=O)N[C@@H](CC(N)=O)C(=O)N2CCC[C@H]2C(=O)N[C@@H](CN)C(=O)N[C@@H](CC(C)C)C(=O)N2C[C@H](O)C[C@H]2C(=O)N[C@@H](Cc2c[nH]c3ccccc23)C(=O)N[C@@H](CO)C(=O)N[C@@H](Cc2csc3ccccc23)C(=O)N1C [Example 5005]
7.52 to 8.17 | – | 7.14 to 8.32 | – | CCCC[C@H]1C(=O)N(C)[C@@H](CCCC)C(=O)N[C@@H](CO)C(=O)N[C@H](C(=O)NCC(N)=O)CSCC(=O)N[C@@H](Cc2ccc(O)cc2)C(=O)N(C)[C@@H](C)C(=O)N[C@@H](CO)C(=O)N2CCC[C@H]2C(=O)N[C@@H](CO)C(=O)N[C@@H](CO)C(=O)N2C[C@H](O)C[C@H]2C(=O)N[C@@H](Cc2c[nH]c3ccccc23)C(=O)N[C@@H](CO)C(=O)N[C@@H](Cc2c[nH]c3ccccc23)C(=O)N1C [Example 5135] ({CH2CO}-Y[NMeA]SPSS[Hyp]WSW[NMeNle][NMeNle]SCG-NH2; thioether N-14)
7.52 to 8.17 | – | 8.33 to 9.80 | – | CCCC[C@H]1C(=O)N(C)[C@@H](CCCC)C(=O)N[C@@H](CCCNC(=N)N)C(=O)NC(C(=O)NCC(N)=O)CSCC(=O)N[C@@H](Cc2ccc(O)cc2)C(=O)N(C)[C@@H](C)C(=O)N[C@@H](CC(N)=O)C(=O)N2CCC[C@H]2C(=O)N[C@@H](Cc2cnc[nH]2)C(=O)N[C@@H](CO)C(=O)N2C[C@H](O)C[C@H]2C(=O)N[C@@H](Cc2c[nH]c3ccccc23)C(=O)N[C@@H](CO)C(=O)N[C@@H](Cc2csc3ccccc23)C(=O)N1C (stereo partly shown) [Example 9070] ({CH2CO}-Y[NMeA]NPHS[Hyp]WS[Bta][NMeNle][NMeNle]R[ξC]G-NH2; thioether N-14)
7.52 to 8.17 | – | – | 7.14 | CCCC[C@H]1C(=O)N(C)[C@@H](CCCC)C(=O)N[C@@H](CCCNC(=N)N)C(=O)N[C@H](C(=O)NCC(N)=O)CSCC(=O)N[C@@H](Cc2ccccc2)C(=O)N(C)[C@@H](C)C(=O)N[C@@H](CC(N)=O)C(=O)N2CCC[C@H]2C(=O)N[C@@H](Cc2cnc[nH]2)C(=O)N[C@@H](CCCNC(=N)N)C(=O)N(C)CC(=O)N[C@@H](Cc2c[nH]c3ccccc23)C(=O)N[C@@H](CO)C(=O)N[C@@H](Cc2c[nH]c3ccccc23)C(=O)N1C [Example 6003] ({CH2CO}-F[NMeA]NPHR[Sar]WSW[NMeNle][NMeNle]RCG-NH2; thioether N-14)
